The text below walks through data of patent US20110200549A1, “Organic Compounds Suitable For Modulating Fragrance Compositions” (priority 2008, published 2011).

In assay [1] the target is T1, CYP2A13 (Homo sapiens, UniProt Q16696).
T1 construct: made in house; host or cells: Sf9 insect cells, recombinant baculovirus
T1 sequence (Q16696 1-494): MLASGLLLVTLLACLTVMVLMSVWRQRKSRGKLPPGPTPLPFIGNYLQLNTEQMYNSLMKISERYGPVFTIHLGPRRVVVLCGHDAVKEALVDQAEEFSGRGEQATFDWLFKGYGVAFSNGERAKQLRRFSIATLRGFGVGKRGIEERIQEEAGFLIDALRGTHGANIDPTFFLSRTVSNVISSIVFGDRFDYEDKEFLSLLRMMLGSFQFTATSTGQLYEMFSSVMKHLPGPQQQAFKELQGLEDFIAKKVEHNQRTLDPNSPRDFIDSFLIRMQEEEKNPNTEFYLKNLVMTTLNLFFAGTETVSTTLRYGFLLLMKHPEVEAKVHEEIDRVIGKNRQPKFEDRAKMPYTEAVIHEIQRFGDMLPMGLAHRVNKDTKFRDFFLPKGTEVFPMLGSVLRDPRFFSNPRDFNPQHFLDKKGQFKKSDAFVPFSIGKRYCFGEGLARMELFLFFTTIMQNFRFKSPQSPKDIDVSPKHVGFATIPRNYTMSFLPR
In words: CYP2A13 inhibition, coumarin 7-hydroxylation (Umbelliferone fluorescence) in microsomes. Type of assay: biochemical. Particulars: recombinant CYP2A13 + P450 reductase microsomes, coumarin 0.006 mM, 60 min at 37° C.; read-out: CYP2A13 inhibitor activity IC50. As to the method: Compounds that inhibit the activity of CYP2A13 are identified by using a standard reaction established for the enzyme. A known substrate is coumarin, and the product of the enzymatic reaction is 7-hydroxy-coumarin (Umbelliferone) which is strongly fluorescent. When a compound is added to the standard reaction and the formation of Umbelliferone is decreased, the compound is identified as an inhibitor, which can also be a competitive substrate of the enzyme. The compound is used at various concentrations and the concentration-dependent decrease in Umbelliferone formation allows to determine the concentration where the activity of the enzyme is reduced to the 50% level (IC50 value).
A test compound (details see Table 1) was incubated with CYP2A13 in the presence of a cytochrome P450 reductase. CYP2A13 and P450 reductase were employed in form of microsomes. CYP2A13 was produced in Sf9 cells using a recombinant baculovirus, under conditions known to the person skilled in the art, for example, as described in WO 2006/007751. P450 reductase is commercially available (BD Biosciences Gentest, USA). Preferably, the two enzymes are coexpressed in the same insect cells and microsomes prepared which contain both enzymes. The art of coexpression of two enzymes is known, and the coexpression CYP2A13 and P450 reductase is described in WO 2006/007751. […] An MOI of 4 for recombinant CYP2A13 baculovirus combined with an MOI of 3.5 for recombinant P450 reductase baculovirus routinely produced microsomes with considerable activity.
Microsomes were used which contained 7 pmoles CYP2A13. Tris buffer (1 M, pH 7.6) and water were added to give a buffer concentration of 0.1M. The test compound was prepared as a 50 mM stock solution in acetonitrile. The concentration of the standard substrate coumarin was 0.006 mM. Several samples of the test compound were prepared at various concentrations to give different final concentrations in the reaction: 0, 0.005, 0.01, 0.02, 0.05, 0.1 and 0.2 mM. The mixture was incubated for 10 min at 37° C. prior to the initiation of the enzymatic reaction by the addition of 0.005 ml of a solution of 50 mM NADPH in water. The final total volume was 0.2 ml, which is suitable for microtiter plate measurements. The samples were incubated for 60 min at 37° C. After 60 min, the enzymatic reaction was stopped by the addition of 0.02 ml cold 50% trichloroacetic acid (TCA) and incubated at 4° C. for 15 min. 0.005 ml of a solution of 50 mM NADPH in water was added to the control reaction which corresponds to the reaction without test compound and without NADPH, and as a consequence, no Umbelliferone was formed. Denatured proteins and other insoluble parts were separated by centrifugation (10 min, 560×g, room-temperature).
The samples were analysed spectrofluorometrically which allows to detect the formation of Umbelliferone as the enzymatic product of coumarin at an excitation wavelength of 340 nm and an emission wavelength of 480 nm.

A short description of assay [2]: Sensory panel study with olfactometer (Virtual Aroma Synthesizer): modulation of a fragrance accord by the inhibitor. Set-up: species or system human. The settings on record: 10-ingredient fragrance accord with vs without inhibitor, random order, panelists. As to the method: For each panelist, the inhibitor was tested by itself and confirmed that it was rated as being odorless at the given concentration.
Sensory studies are performed using an olfactometer, such as the Virtual Aroma Synthesizer (VAS) which is described in Chimia (2001) 55:401-405. The instrument allows to combine saturated headspace of different samples from different containers at various dilutions in order to determine the effect on the odor of the mixture produced in headspace. For the particular example, in one container the fragrance accord (1 gram) was adsorbed on beads (4 grams) and in another container the inhibitor N-(cyclopropylmethyl)-N-pentylacetamide was adsorbed on beads (4 grams).
Panelists were selected having different levels of experience and expertise in smelling, rating, describing and evaluating odorants, accords and perfumes. Panelists smelled the accord with or without the inhibitor at random order, not knowing which one was presented. Before and after the session, it was confirmed that the inhibitor alone was odorless.

For assay [3], the target named is T2, CYP2B6 (Homo sapiens, UniProt P20813).
T2 construct: made in house; host or cells: Sf9 insect cells, recombinant baculoviruses, coexpressed with P450 reductase
T2 sequence (P20813 1-491): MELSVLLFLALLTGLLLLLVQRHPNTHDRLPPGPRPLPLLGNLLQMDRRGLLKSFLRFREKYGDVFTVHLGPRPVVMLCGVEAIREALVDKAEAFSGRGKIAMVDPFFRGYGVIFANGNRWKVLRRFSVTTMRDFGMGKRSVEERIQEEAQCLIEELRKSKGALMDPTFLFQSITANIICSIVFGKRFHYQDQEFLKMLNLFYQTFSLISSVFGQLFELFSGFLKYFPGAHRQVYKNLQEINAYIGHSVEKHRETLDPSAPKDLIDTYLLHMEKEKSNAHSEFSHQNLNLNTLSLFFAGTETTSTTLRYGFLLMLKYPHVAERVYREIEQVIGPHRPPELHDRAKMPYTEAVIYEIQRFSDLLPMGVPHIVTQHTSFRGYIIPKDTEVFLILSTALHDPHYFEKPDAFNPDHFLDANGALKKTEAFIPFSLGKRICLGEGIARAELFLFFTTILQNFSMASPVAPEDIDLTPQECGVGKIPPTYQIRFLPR
Nature of the assay: CYP2B6 inhibition, 7-ethoxy-4-trifluoromethyl-coumarin fluorescence assay in microsomes. Type of assay: biochemical. The settings on record: CYP2B6 + P450 reductase microsomes, 7-ethoxy-4-trifluoromethyl-coumarin 6 μM, 40 min at 37° C.; read-out: CYP2B6 inhibitor activity IC50. As to the method: Test compounds that inhibit the activity of CYP2B6 are identified by using the same principle as described in Example 42, first paragraph.
A test compound (details see Table 2) was incubated with CYP2B6 in the presence of a cytochrome P450 reductase. CYP2B6 and P450 reductase are produced using recombinant baculoviruses and co-expressing the two proteins in Sf9 insect cells as described in Example 42. Alternatively, microsomes containing CYP2B6 and the reductase are commercially available (BD Biosciences Gentest, USA). Microsomes were used which contained 1.5 pmoles CYP2B6. Potassium phosphate buffer final concentration was 100 mM, (1M stock, pH 7.4). The test compound was prepared as a 50 mM stock solution in acetonitrile. The concentration of the standard substrate 7-ethoxy-4-trifluoromethyl-coumarin was 6 μM. Several samples of the test compound were prepared at various concentrations to give different final concentrations in the reaction: 0, 0.005, 0.01, 0.02, 0.05, 0.1 and 0.2 mM. […] The final total volume was 0.2 ml, which is suitable for microtiter plate measurements. The samples were incubated for 40 min at 37° C. After 40 min, the enzymatic reaction was stopped by the addition of […] 0.5M Tris-base/acetonitrile (18:72). 0.005 ml of a solution of 50 mM NADPH in water was added to the control reaction which corresponds to the reaction with test compound and enzyme but without NADPH, and as a consequence, no 4-trifluoromethyl-umbelliferone was formed. Denatured proteins and other insoluble parts were separated by centrifugation (5 min, 1800 rpm, at 10° C.).
The samples were analysed spectrofluorometrically which allows to detect the formation of 4-trifluoromethyl-umbelliferone as the enzymatic product at an excitation wavelength of 410 nm and an emission wavelength of 510 nm.

pIC50: −log10 of the molar value.

What is called pIC50 is the negative decadic logarithm of the IC50, by convention in mol/L. With `CCCCCN(CC1CC1)C(C)=O` [Ex. 10, N-(cyclopropylmethyl)-N-pentylacetamide], the values for the pIC50 in assay [1] and in assay [3] were 6.30 and 4.06, respectively. The “Effect on the odor of the fragrance accord attributed to the presence of the inhibitor” value in assay [2] is reported as “intensifying or boosting the fruitiness of the accord”.
